Test results: patent US11814367B2, “Inhibitors of glycogen synthase 1 (GYS1) and methods of use thereof” (Maze Therapeutics, Inc., priority 2021, dated 2023)

Assays:
[1] = target: hGYS1 enzyme (recombinant hGYS1/GN1 protein) (Homo sapiens (Human), UniProt P13807); assay: GYS1 coupled enzyme assay (PK/LDH); type: biochemical; details: hGYS1/GN1 50 nM, UDP-Glucose 0.8 mM, G6P 1 mM; geometric mean of at least 2 runs
[2] = test system: hGYS1 enzyme / glycogen synthesis in HeLa cells; assay: GYS1 cell based assay (glycogen synthesis, Glucose-glo); parameters: species or system human; details: Homo sapiens, HeLa, 24 h, 24 h incubation, 20 mM glucose, geometric mean of at least 2 runs
In short: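 HeLa cells starved 24 h in medium containing only 1× Glutamax were plated onto compound in medium with 20 mM glucose (1% DMSO final) for 24 h, 37 °C, 5% CO2. Acid lysates were Tris-quenched, glucoamylase-digested (pH 5.3, 1 h, 37 °C) and read by Glucose-glo luminescence. IC50 came from Hill fits, as geometric mean of ≥2 runs.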

[3] = target: hGYS2 enzyme (recombinant hGYS2/GN1 protein) (Homo sapiens (Human), UniProt P54840); assay: GYS2 coupled enzyme assay (PK/LDH); type: biochemical; details: geometric mean of at least 2 assay runs on separate days, read-out: Avg_IC50
Sequence of hGYS2 enzyme (recombinant hGYS2/GN1 protein) (P54840 whole entry): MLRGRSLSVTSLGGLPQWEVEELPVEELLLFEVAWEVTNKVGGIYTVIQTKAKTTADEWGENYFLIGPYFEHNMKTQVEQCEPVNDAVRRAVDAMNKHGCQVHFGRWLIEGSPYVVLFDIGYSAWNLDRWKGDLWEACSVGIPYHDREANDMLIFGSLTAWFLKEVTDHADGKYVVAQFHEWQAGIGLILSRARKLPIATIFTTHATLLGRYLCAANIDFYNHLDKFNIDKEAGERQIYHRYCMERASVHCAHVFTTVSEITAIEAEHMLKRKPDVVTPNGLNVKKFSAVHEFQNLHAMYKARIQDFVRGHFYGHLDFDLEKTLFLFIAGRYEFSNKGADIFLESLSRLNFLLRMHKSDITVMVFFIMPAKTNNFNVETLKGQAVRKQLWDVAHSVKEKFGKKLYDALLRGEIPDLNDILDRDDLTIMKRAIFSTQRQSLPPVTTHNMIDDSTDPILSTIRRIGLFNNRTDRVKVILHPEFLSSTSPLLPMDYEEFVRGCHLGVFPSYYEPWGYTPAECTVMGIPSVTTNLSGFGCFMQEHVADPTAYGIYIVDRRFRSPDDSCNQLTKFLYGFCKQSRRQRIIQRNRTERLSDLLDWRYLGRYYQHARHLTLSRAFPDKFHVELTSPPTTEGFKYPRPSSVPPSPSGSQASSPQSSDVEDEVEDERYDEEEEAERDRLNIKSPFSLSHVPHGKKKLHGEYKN
Sequence of hGYS2 enzyme (recombinant hGYS2/GN1 protein) (P46976 whole entry partner): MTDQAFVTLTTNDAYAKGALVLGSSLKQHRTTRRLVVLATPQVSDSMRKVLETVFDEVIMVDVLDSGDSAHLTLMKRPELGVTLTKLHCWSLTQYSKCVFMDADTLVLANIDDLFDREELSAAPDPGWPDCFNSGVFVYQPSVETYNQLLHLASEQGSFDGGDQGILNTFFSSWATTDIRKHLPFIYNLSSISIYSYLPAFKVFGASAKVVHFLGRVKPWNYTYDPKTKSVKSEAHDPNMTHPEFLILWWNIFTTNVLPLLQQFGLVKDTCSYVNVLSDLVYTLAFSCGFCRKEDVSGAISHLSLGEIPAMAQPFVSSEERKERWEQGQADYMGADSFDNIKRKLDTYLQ
In short: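 hGYS2/GN1 200 nM; UDP-Glc 2 mM; glycogen 0.2%; G6P 2 mM; PEP 2 mM, NADH 0.6 mM, PK/LDH 20 U/mL. 50 mM Tris pH 7.5, MgCl2, KCl, BSA, TCEP, 2.5% DMSO. Kinetic A340, 10 min. IC50 = geomean of ≥2 runs.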

Sequence of hGYS1 enzyme (recombinant hGYS1/GN1 protein) (P13807 whole entry): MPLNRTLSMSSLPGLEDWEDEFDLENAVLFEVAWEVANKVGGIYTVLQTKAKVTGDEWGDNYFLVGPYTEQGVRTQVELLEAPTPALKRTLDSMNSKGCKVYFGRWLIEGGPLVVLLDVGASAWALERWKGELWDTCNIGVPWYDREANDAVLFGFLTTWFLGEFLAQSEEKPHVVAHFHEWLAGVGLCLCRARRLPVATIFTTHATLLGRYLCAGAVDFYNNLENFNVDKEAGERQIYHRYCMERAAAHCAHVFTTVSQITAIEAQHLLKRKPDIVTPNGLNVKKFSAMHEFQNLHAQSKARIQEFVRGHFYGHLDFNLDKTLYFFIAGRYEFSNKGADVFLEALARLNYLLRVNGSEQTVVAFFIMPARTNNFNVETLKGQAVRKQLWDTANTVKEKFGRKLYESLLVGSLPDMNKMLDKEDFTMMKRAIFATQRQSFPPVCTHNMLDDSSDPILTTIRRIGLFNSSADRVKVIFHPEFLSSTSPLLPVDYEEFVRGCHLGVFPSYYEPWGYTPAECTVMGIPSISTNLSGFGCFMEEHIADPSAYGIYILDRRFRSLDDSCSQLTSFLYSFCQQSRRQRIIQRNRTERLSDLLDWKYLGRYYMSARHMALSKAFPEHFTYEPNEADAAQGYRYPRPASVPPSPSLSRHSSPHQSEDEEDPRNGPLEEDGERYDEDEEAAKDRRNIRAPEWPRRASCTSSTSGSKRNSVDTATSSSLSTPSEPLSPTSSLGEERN
Sequence of hGYS1 enzyme (recombinant hGYS1/GN1 protein) (P46976 whole entry partner): as the sequence (P46976 whole entry partner) above

SMILES | IC50 [1] [nM] | IC50 [2] [nM] | IC50 [3] [nM]
C[C@@H](NC(=O)N(C)C)C(=O)N1C[C@H](F)C[C@H]1C(=O)N[C@@H](c1ccccc1)c1ccc(C2CC2)c(F)n1 [Compound 311, (2S,4R)-N-[(S)-(5-cyclopropyl-6-fluoropyridin-2-yl)(phenyl)methyl]-1-[(2R)-2-[(dimethylcarbamoyl)amino]propanoyl]-4-fluoropyrrolidine-2-carboxamide] | 127 | 2100 | > 100000
CN(CC(=O)N1C[C@H](F)C[C@H]1C(=O)N[C@@H](c1ccccc1)c1ccc(C2CC2)c(F)c1)c1cnccn1 [Compound 475, (2S,4R)-N-[(S)-(4-cyclopropyl-3-fluorophenyl)(phenyl)methyl]-4-fluoro-1-{2-[methyl(pyrazin-2-yl)amino]acetyl} pyrrolidine-2-carboxamide] | 77 | 1290 | > 100000
CC(C)c1ccc([C@@H](NC(=O)[C@@H]2C[C@@H](F)CN2C(=O)Cn2nnnc2C(F)(F)F)c2ccccc2)cc1F [Compound 359] | 63 | 960 | > 100000
Cc1n[nH]c(C)c1CC(=O)N1C[C@H](F)C[C@H]1C(=O)N[C@@H](c1ccccc1)c1ccc(C(C)C)cn1 [Compound 246, (2S,4R)-1-[2-(3,5-dimethyl-1H-pyrazol-4-yl)acetyl]-4-fluoro-N-[(S)-phenyl[5-(propan-2-yl)pyridin-2-yl]methyl]pyrrolidine-2-carboxamide] | 33 | 620 | > 100000
O=C(N[C@@H](c1ccccc1)c1ccc(C2CC2)c(F)n1)[C@@H]1C[C@@H](F)CN1C(=O)Cn1cccn1 [Compound 723, (2S,4R)-N-[(S)-(5-cyclopropyl-6-fluoropyridin-2-yl)(phenyl)methyl]-4-fluoro-1-[2-(1H-pyrazol-1-yl)acetyl]pyrrolidine-2-carboxamide] | 46 | 720 | > 100000
CC(C)c1ccc(C(NC(=O)[C@@H]2C[C@@H](F)CN2C(=O)Cc2ncco2)c2ccn[nH]2)nc1F (single isomer, unassigned) [Compound 630, (2S,4R)-4-fluoro-N-[(S) or (R)-[6-fluoro-5-(propan-2-yl)pyridin-2-yl](1H-pyrazol-5-yl)methyl]-1-[2-(1,3-oxazol-2-yl)acetyl]pyrrolidine-2-carboxamide] | 92 | 2130 | > 100000
COc1cccc(C(NC(=O)[C@@H]2C[C@@H](F)CN2C(=O)Cc2cnn[nH]2)c2ccc(C(C)C)c(F)n2)c1 (single isomer, unassigned) [Compound 651, (2S,4R)-4-fluoro-N-[(S) or (R)-[6-fluoro-5-(propan-2-yl)pyridin-2-yl](3-methoxyphenyl)methyl]-1-[2-(1H-1,2,3-triazol-5-yl)acetyl]pyrrolidine-2-carboxamide] | 77 | 1570 | > 100000
CC1(c2ccc([C@@H](NC(=O)[C@@H]3C[C@@H](F)CN3C(=O)Cc3n[nH]c4ccccc34)c3ccccc3)nc2F)CC1 [Compound 588, (2S,4R)-4-fluoro-N-[(S)-[6-fluoro-5-(1-methylcyclopropyl)pyridin-2-yl] (phenyl)methyl]-1-[2-(1H-indazol-3-yl)acetyl]pyrrolidine-2-carboxamide] | 36 | 480 | > 100000
CC1(c2ccc([C@@H](NC(=O)[C@@H]3C[C@@H](F)CN3C(=O)Cc3n[nH]c4ccccc34)c3ccccc3)cc2F)CC1 [Compound 571, (2S,4R)-4-fluoro-N-[(S)-[3-fluoro-4-(1-methylcyclopropyl)phenyl](phenyl)methyl]-1-[2-(1H-indazol-3-yl)acetyl]pyrrolidine-2-carboxamide] | 75 | 930 | > 100000
O=C(N[C@H](c1ccccc1)c1ccc(C2CC(F)(F)C2)c(F)n1)[C@@H]1C[C@@H](F)CN1C(=O)Cc1ccc(=O)[nH]c1 [Compound 520, (2S,4R)-N-[(R)-[5-(3,3-difluorocyclobutyl)-6-fluoropyridin-2-yl](phenyl)methyl]-4-fluoro-1-[2-(6-oxo-1,6-dihydropyridin-3-yl)acetyl]pyrrolidine-2-carboxamide] | 557 | > 30000 | > 100000
CC(C)c1ccc([C@@H](NC(=O)[C@@H]2C[C@@H](F)CN2C(=O)Cc2nnc(CN(C)C)o2)c2ccccc2)cc1 [Compound 242, (2S,4R)-1-(2-{5-[(dimethylamino)methyl]-1,3,4-oxadiazol-2-yl}acetyl)-4-fluoro-N-[(S)-phenyl[4-(propan-2-yl)phenyl]methyl]pyrrolidine-2-carboxamide] | 79 | 1140 | > 100000
Cc1nc(C(NC(=O)[C@@H]2C[C@@H](F)CN2C(=O)Cc2nnc(C(F)F)o2)c2ccccc2)ccc1C(C)C (single isomer, unassigned) [Compound 609, (2S,4R)-1-{2-[5-(difluoromethyl)-1,3,4-oxadiazol-2-yl]acetyl}-4-fluoro-N-[(S) or (R)-[6-methyl-5-(propan-2-yl)pyridin-2-yl](phenyl)methyl] pyrrolidine-2-carboxamide] | 225 | 1650 | > 100000
CC1(c2ccc([C@@H](NC(=O)[C@@H]3C[C@@H](F)CN3C(=O)CN3CC(=O)NCC3=O)c3ccccc3)cc2F)CC1 [Compound 572, (2S,4R)-1-[2-(2,5-dioxopiperazin-1-yl)acetyl]-4-fluoro-N-[(S)-[3-fluoro-4-(1-methylcyclopropyl)phenyl](phenyl)methyl]pyrrolidine-2-carboxamide] | 205 | 3600 | > 100000
O=C(NC(c1ccccc1)c1ccc(C2CCC2)c(F)c1)[C@@H]1C[C@@H](F)CN1C(=O)Cn1cnnn1 (single isomer, unassigned) [Compound 675, (2S,4R)-N-[(S) or (R)-(4-cyclobutyl-3-fluorophenyl) (phenyl)methyl]-4-fluoro-1-[2-(1H-1,2,3,4-tetrazol-1-yl)acetyl]pyrrolidine-2-carboxamide] | 101 | 1130 | > 100000
CC(C)c1ccc([C@@H](NC(=O)[C@@H]2C[C@@H](F)CN2C(=O)CNC(=O)N2CCC2)c2ccccc2)nc1 [Compound 265, (2S,4R)-1-{2-[(azetidine-1-carbonyl)amino]acetyl}-4-fluoro-N-[(S)-phenyl[5-(propan-2-yl)pyridin-2-yl]methyl]pyrrolidine-2-carboxamide] | 41 | 830 | > 100000
O=C(N[C@@H](c1ccccc1)c1ccc(C2CC2)c(F)n1)[C@@H]1C[C@@H](F)CN1C(=O)Cn1ncc(N2CC(F)(F)C2)n1 [Compound 318, (2S,4R)-N-[(S)-(5-cyclopropyl-6-fluoropyridin-2-yl)(phenyl)methyl]-1-{2-[4-(3,3-difluoroazetidin-1-yl)-2H-1,2,3-triazol-2-yl]acetyl}-4-fluoropyrrolidine-2-carboxamide] | 20 | 580 | > 100000
CC(C)c1ccc([C@@H](NC(=O)[C@@H]2C[C@@H](F)CN2C(=O)Cn2cnnn2)c2ccccc2)cc1F [Compound 330, (2S,4R)-4-fluoro-N-[(S)-[3-fluoro-4-(propan-2-yl)phenyl](phenyl)methyl]-1-[2-(1H-1,2,3,4-tetrazol-1-yl)acetyl]pyrrolidine-2-carboxamide] | 21 | 560 | > 100000
CC(C)c1ccc([C@@H](NC(=O)[C@@H]2C[C@@H](F)CN2C(=O)Cn2ncc(N(C)C)n2)c2ccccc2)cc1F [Compound 378, (2S,4R)-1-{2-[4-(dimethylamino)-2H-1,2,3-triazol-2-yl]acetyl}-4-fluoro-N-[(S)-[3-fluoro-4-(propan-2-yl)phenyl](phenyl)methyl] pyrrolidine-2-carboxamide] | 6 | 170 | > 100000
Cn1nc(CC(=O)N2C[C@H](F)C[C@H]2C(=O)N[C@@H](c2ccccc2)c2ccc(C3CC3)c(F)n2)[nH]c1=O [Compound 303, (2S,4R)-N-[(S)-(5-cyclopropyl-6-fluoropyridin-2-yl)(phenyl)methyl]-4-fluoro-1-[2-(1-methyl-5-oxo-4,5-dihydro-1H-1,2,4-triazol-3-yl)acetyl]pyrrolidine-2-carboxamide] | 36 | 1520 | > 100000
CC(C)c1ccc(C(NC(=O)[C@@H]2C[C@@H](F)CN2C(=O)Cc2cnn[nH]2)c2ccn3cncc3c2)nc1F (single isomer, unassigned) [Compound 631, (2S,4R)-4-fluoro-N-[(S) or (R)-[6-fluoro-5-(propan-2-yl)pyridin-2-yl]({imidazo[1,5-a]pyridin-7-yl})methyl]-1-[2-(1H-1,2,3-triazol-5-yl)acetyl]pyrrolidine-2-carboxamide] | 176 | 13600 | > 100000
CC(C)c1ccc([C@@H](NC(=O)[C@@H]2C[C@@H](F)CN2C(=O)Cc2ncco2)c2ccccc2)nc1 [Compound 270, (2S,4R)-4-fluoro-1-[2-(1,3-oxazol-2-yl)acetyl]-N-[(S)-phenyl[5-(propan-2-yl)pyridin-2-yl]methyl]pyrrolidine-2-carboxamide] | 96 | 1400 | > 100000
